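96-well plates; 48 h exposure; 5 concentrations. Endpoints by linear interpolation between flanking doses. Not reached: highest tested concentration assigned. TGI denotes the concentration required for complete inhibition of growth.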
Tested on: 786-0 renal
Test: NCI tumour cell line growth inhibition, 48 h

Structure (SMILES) | TGI [µM]
O=C1/C(=C/c2ccccc2S)N=C(c2ccccc2)N1c1nc2c(Cl)cc(Cl)cc2s1 | 74.1
CCCCCCc1cc2cc(C(=O)Nc3ccccc3)c(=N)oc2cc1O | > 35.8
Cc1nn(-c2ccccc2)c2c1C(c1ccc(Cl)cc1)NC(=S)N2 (centres undefined) | 36.8
CCOC1OC(=O)c2cc3ccc4c(c3c(-c3ccc5c(c3)OCO5)c21)OCO4 (centres undefined) | > 100
CN=C1CC2c3cc(OC)c(OC)cc3CCN2C2=C1C(=O)CC(C)(C)C2 (centres undefined) | > 100
Cn1c(=O)n(C2(C)C[Se]C2)c2ccccc21 | > 100
COC(=O)C(Cc1nc2ccc(Cl)cc2[nH]c1=O)/C(=N\N)C(=O)Nc1cc(C)c(Cl)cc1S(=O)(=O)O (centres undefined) | > 100

Tested on: NCI-H460 lung
Test: NCI tumour cell line growth inhibition, 48 h

Structure (SMILES) | TGI [µM]
O=C1/C(=C/c2ccccc2S)N=C(c2ccccc2)N1c1nc2c(Cl)cc(Cl)cc2s1 | > 100
CCCCCCc1cc2cc(C(=O)Nc3ccccc3)c(=N)oc2cc1O | > 100
Cc1nn(-c2ccccc2)c2c1C(c1ccc(Cl)cc1)NC(=S)N2 (centres undefined) | 60
CCOC1OC(=O)c2cc3ccc4c(c3c(-c3ccc5c(c3)OCO5)c21)OCO4 (centres undefined) | 28.1
CN=C1CC2c3cc(OC)c(OC)cc3CCN2C2=C1C(=O)CC(C)(C)C2 (centres undefined) | > 100
Cn1c(=O)n(C2(C)C[Se]C2)c2ccccc21 | > 100
COC(=O)C(Cc1nc2ccc(Cl)cc2[nH]c1=O)/C(=N\N)C(=O)Nc1cc(C)c(Cl)cc1S(=O)(=O)O (centres undefined) | > 100

Tested on: OVCAR-3 ovarian
Test: NCI tumour cell line growth inhibition, 48 h

Structure (SMILES) | TGI [µM]
O=C1/C(=C/c2ccccc2S)N=C(c2ccccc2)N1c1nc2c(Cl)cc(Cl)cc2s1 | 40.2
CCCCCCc1cc2cc(C(=O)Nc3ccccc3)c(=N)oc2cc1O | 5.1
Cc1nn(-c2ccccc2)c2c1C(c1ccc(Cl)cc1)NC(=S)N2 (centres undefined) | > 100
CCOC1OC(=O)c2cc3ccc4c(c3c(-c3ccc5c(c3)OCO5)c21)OCO4 (centres undefined) | 3.77
CN=C1CC2c3cc(OC)c(OC)cc3CCN2C2=C1C(=O)CC(C)(C)C2 (centres undefined) | > 100
COC(=O)C(Cc1nc2ccc(Cl)cc2[nH]c1=O)/C(=N\N)C(=O)Nc1cc(C)c(Cl)cc1S(=O)(=O)O (centres undefined) | > 100

Tested on: SN12C renal
Test: NCI tumour cell line growth inhibition, 48 h

Structure (SMILES) | TGI [µM]
O=C1/C(=C/c2ccccc2S)N=C(c2ccccc2)N1c1nc2c(Cl)cc(Cl)cc2s1 | 44.2
CCCCCCc1cc2cc(C(=O)Nc3ccccc3)c(=N)oc2cc1O | 6.97
Cc1nn(-c2ccccc2)c2c1C(c1ccc(Cl)cc1)NC(=S)N2 (centres undefined) | 47.5
CCOC1OC(=O)c2cc3ccc4c(c3c(-c3ccc5c(c3)OCO5)c21)OCO4 (centres undefined) | > 100
CN=C1CC2c3cc(OC)c(OC)cc3CCN2C2=C1C(=O)CC(C)(C)C2 (centres undefined) | > 100
Cn1c(=O)n(C2(C)C[Se]C2)c2ccccc21 | > 100
COC(=O)C(Cc1nc2ccc(Cl)cc2[nH]c1=O)/C(=N\N)C(=O)Nc1cc(C)c(Cl)cc1S(=O)(=O)O (centres undefined) | > 100

Tested on: HOP-62 NSCLC
Test: NCI tumour cell line growth inhibition, 48 h

Structure (SMILES) | TGI [µM]
O=C1/C(=C/c2ccccc2S)N=C(c2ccccc2)N1c1nc2c(Cl)cc(Cl)cc2s1 | 47.2
CCCCCCc1cc2cc(C(=O)Nc3ccccc3)c(=N)oc2cc1O | 11.8
Cc1nn(-c2ccccc2)c2c1C(c1ccc(Cl)cc1)NC(=S)N2 (centres undefined) | 80.1
CCOC1OC(=O)c2cc3ccc4c(c3c(-c3ccc5c(c3)OCO5)c21)OCO4 (centres undefined) | > 100
Cn1c(=O)n(C2(C)C[Se]C2)c2ccccc21 | > 100
COC(=O)C(Cc1nc2ccc(Cl)cc2[nH]c1=O)/C(=N\N)C(=O)Nc1cc(C)c(Cl)cc1S(=O)(=O)O (centres undefined) | > 100

Tested on: CCRF-CEM leukemia
Test: NCI tumour cell line growth inhibition, 48 h

Structure (SMILES) | TGI [µM]
O=C1/C(=C/c2ccccc2S)N=C(c2ccccc2)N1c1nc2c(Cl)cc(Cl)cc2s1 | 13.7
CCCCCCc1cc2cc(C(=O)Nc3ccccc3)c(=N)oc2cc1O | > 37.9
Cc1nn(-c2ccccc2)c2c1C(c1ccc(Cl)cc1)NC(=S)N2 (centres undefined) | 72.8
CCOC1OC(=O)c2cc3ccc4c(c3c(-c3ccc5c(c3)OCO5)c21)OCO4 (centres undefined) | > 100
CN=C1CC2c3cc(OC)c(OC)cc3CCN2C2=C1C(=O)CC(C)(C)C2 (centres undefined) | > 100
Cn1c(=O)n(C2(C)C[Se]C2)c2ccccc21 | > 100
COC(=O)C(Cc1nc2ccc(Cl)cc2[nH]c1=O)/C(=N\N)C(=O)Nc1cc(C)c(Cl)cc1S(=O)(=O)O (centres undefined) | > 100

Tested on: MOLT-4 leukemia
Test: NCI tumour cell line growth inhibition, 48 h

Structure (SMILES) | TGI [µM]
O=C1/C(=C/c2ccccc2S)N=C(c2ccccc2)N1c1nc2c(Cl)cc(Cl)cc2s1 | 30.2
CCCCCCc1cc2cc(C(=O)Nc3ccccc3)c(=N)oc2cc1O | 8.79
Cc1nn(-c2ccccc2)c2c1C(c1ccc(Cl)cc1)NC(=S)N2 (centres undefined) | > 100
CCOC1OC(=O)c2cc3ccc4c(c3c(-c3ccc5c(c3)OCO5)c21)OCO4 (centres undefined) | > 100
CN=C1CC2c3cc(OC)c(OC)cc3CCN2C2=C1C(=O)CC(C)(C)C2 (centres undefined) | > 100
Cn1c(=O)n(C2(C)C[Se]C2)c2ccccc21 | > 100
COC(=O)C(Cc1nc2ccc(Cl)cc2[nH]c1=O)/C(=N\N)C(=O)Nc1cc(C)c(Cl)cc1S(=O)(=O)O (centres undefined) | > 100

Tested on: HOP-92 NSCLC
Test: NCI tumour cell line growth inhibition, 48 h

Structure (SMILES) | TGI [µM]
O=C1/C(=C/c2ccccc2S)N=C(c2ccccc2)N1c1nc2c(Cl)cc(Cl)cc2s1 | 49.6
CCCCCCc1cc2cc(C(=O)Nc3ccccc3)c(=N)oc2cc1O | > 100
Cc1nn(-c2ccccc2)c2c1C(c1ccc(Cl)cc1)NC(=S)N2 (centres undefined) | 35.2
CCOC1OC(=O)c2cc3ccc4c(c3c(-c3ccc5c(c3)OCO5)c21)OCO4 (centres undefined) | > 100
CN=C1CC2c3cc(OC)c(OC)cc3CCN2C2=C1C(=O)CC(C)(C)C2 (centres undefined) | > 100
Cn1c(=O)n(C2(C)C[Se]C2)c2ccccc21 | > 100
COC(=O)C(Cc1nc2ccc(Cl)cc2[nH]c1=O)/C(=N\N)C(=O)Nc1cc(C)c(Cl)cc1S(=O)(=O)O (centres undefined) | > 100

Tested on: SK-MEL-2 melanoma
Test: NCI tumour cell line growth inhibition, 48 h

Structure (SMILES) | TGI [µM]
O=C1/C(=C/c2ccccc2S)N=C(c2ccccc2)N1c1nc2c(Cl)cc(Cl)cc2s1 | 52.9
CCCCCCc1cc2cc(C(=O)Nc3ccccc3)c(=N)oc2cc1O | 14.7
Cc1nn(-c2ccccc2)c2c1C(c1ccc(Cl)cc1)NC(=S)N2 (centres undefined) | 38.6
CCOC1OC(=O)c2cc3ccc4c(c3c(-c3ccc5c(c3)OCO5)c21)OCO4 (centres undefined) | > 100
CN=C1CC2c3cc(OC)c(OC)cc3CCN2C2=C1C(=O)CC(C)(C)C2 (centres undefined) | > 100
Cn1c(=O)n(C2(C)C[Se]C2)c2ccccc21 | > 100
COC(=O)C(Cc1nc2ccc(Cl)cc2[nH]c1=O)/C(=N\N)C(=O)Nc1cc(C)c(Cl)cc1S(=O)(=O)O (centres undefined) | > 100

Tested on: MDA-N
Test: NCI tumour cell line growth inhibition, 48 h

Structure (SMILES) | TGI [µM]
O=C1/C(=C/c2ccccc2S)N=C(c2ccccc2)N1c1nc2c(Cl)cc(Cl)cc2s1 | 36.9
CCCCCCc1cc2cc(C(=O)Nc3ccccc3)c(=N)oc2cc1O | > 34.3
Cc1nn(-c2ccccc2)c2c1C(c1ccc(Cl)cc1)NC(=S)N2 (centres undefined) | 93.6
CCOC1OC(=O)c2cc3ccc4c(c3c(-c3ccc5c(c3)OCO5)c21)OCO4 (centres undefined) | 5.2

Tested on: M19-MEL melanoma
Test: NCI tumour cell line growth inhibition, 48 h

Structure (SMILES) | TGI [µM]
CN=C1CC2c3cc(OC)c(OC)cc3CCN2C2=C1C(=O)CC(C)(C)C2 (centres undefined) | > 100
Cn1c(=O)n(C2(C)C[Se]C2)c2ccccc21 | > 100

Tested on: SNB-75 CNS
Test: NCI tumour cell line growth inhibition, 48 h

Structure (SMILES) | TGI [µM]
O=C1/C(=C/c2ccccc2S)N=C(c2ccccc2)N1c1nc2c(Cl)cc(Cl)cc2s1 | 64.8
CCCCCCc1cc2cc(C(=O)Nc3ccccc3)c(=N)oc2cc1O | > 100
Cc1nn(-c2ccccc2)c2c1C(c1ccc(Cl)cc1)NC(=S)N2 (centres undefined) | > 100
CCOC1OC(=O)c2cc3ccc4c(c3c(-c3ccc5c(c3)OCO5)c21)OCO4 (centres undefined) | 15.5
CN=C1CC2c3cc(OC)c(OC)cc3CCN2C2=C1C(=O)CC(C)(C)C2 (centres undefined) | > 100
Cn1c(=O)n(C2(C)C[Se]C2)c2ccccc21 | > 100

Tested on: SK-OV-3 ovarian
Test: NCI tumour cell line growth inhibition, 48 h

Structure (SMILES) | TGI [µM]
O=C1/C(=C/c2ccccc2S)N=C(c2ccccc2)N1c1nc2c(Cl)cc(Cl)cc2s1 | 66
CCCCCCc1cc2cc(C(=O)Nc3ccccc3)c(=N)oc2cc1O | > 26.5
Cc1nn(-c2ccccc2)c2c1C(c1ccc(Cl)cc1)NC(=S)N2 (centres undefined) | 59.8
CCOC1OC(=O)c2cc3ccc4c(c3c(-c3ccc5c(c3)OCO5)c21)OCO4 (centres undefined) | > 29.9
Cn1c(=O)n(C2(C)C[Se]C2)c2ccccc21 | > 100
COC(=O)C(Cc1nc2ccc(Cl)cc2[nH]c1=O)/C(=N\N)C(=O)Nc1cc(C)c(Cl)cc1S(=O)(=O)O (centres undefined) | > 100

Tested on: UO-31 renal
Test: NCI tumour cell line growth inhibition, 48 h

Structure (SMILES) | TGI [µM]
O=C1/C(=C/c2ccccc2S)N=C(c2ccccc2)N1c1nc2c(Cl)cc(Cl)cc2s1 | 48.1
CCCCCCc1cc2cc(C(=O)Nc3ccccc3)c(=N)oc2cc1O | 12.7
Cc1nn(-c2ccccc2)c2c1C(c1ccc(Cl)cc1)NC(=S)N2 (centres undefined) | 28.8
CCOC1OC(=O)c2cc3ccc4c(c3c(-c3ccc5c(c3)OCO5)c21)OCO4 (centres undefined) | > 100
CN=C1CC2c3cc(OC)c(OC)cc3CCN2C2=C1C(=O)CC(C)(C)C2 (centres undefined) | > 100
Cn1c(=O)n(C2(C)C[Se]C2)c2ccccc21 | > 100
COC(=O)C(Cc1nc2ccc(Cl)cc2[nH]c1=O)/C(=N\N)C(=O)Nc1cc(C)c(Cl)cc1S(=O)(=O)O (centres undefined) | > 100

Tested on: SF-295 CNS
Test: NCI tumour cell line growth inhibition, 48 h

Structure (SMILES) | TGI [µM]
O=C1/C(=C/c2ccccc2S)N=C(c2ccccc2)N1c1nc2c(Cl)cc(Cl)cc2s1 | 72.4
CCCCCCc1cc2cc(C(=O)Nc3ccccc3)c(=N)oc2cc1O | > 100
Cc1nn(-c2ccccc2)c2c1C(c1ccc(Cl)cc1)NC(=S)N2 (centres undefined) | 62.3
CCOC1OC(=O)c2cc3ccc4c(c3c(-c3ccc5c(c3)OCO5)c21)OCO4 (centres undefined) | 8.14
CN=C1CC2c3cc(OC)c(OC)cc3CCN2C2=C1C(=O)CC(C)(C)C2 (centres undefined) | > 100
Cn1c(=O)n(C2(C)C[Se]C2)c2ccccc21 | > 100
COC(=O)C(Cc1nc2ccc(Cl)cc2[nH]c1=O)/C(=N\N)C(=O)Nc1cc(C)c(Cl)cc1S(=O)(=O)O (centres undefined) | > 100

Tested on: TK-10 renal
Test: NCI tumour cell line growth inhibition, 48 h

Structure (SMILES) | TGI [µM]
O=C1/C(=C/c2ccccc2S)N=C(c2ccccc2)N1c1nc2c(Cl)cc(Cl)cc2s1 | > 100

— PubChem BioAssay (NCI)
